ChEMBL document CHEMBL1127341, “Synthesis and biological evaluation of 5-[[3,5-bis(1,1-dimethylethyl)- 4-hydroxyphenyl]methylene]oxazoles, -thiazoles, and -imidazoles: novel dual 5-lipoxygenase and cyclooxygenase inhibitors with antiinflammatory activity” (J Med Chem, 1994)

How the values were obtained:
Format in all cases: functional
Rattus norvegicus [1] = assay: Inhibition of rat carrageenan induced foot-pad edema at a dose of 10 mg/kg on peroral administration; details: route oral
Rattus norvegicus [2] = assay: Inhibition of rat carrageenan induced foot-pad edema at a dose of 30 mg/kg on peroral administration; details: route oral
Rattus norvegicus [3] = assay: 40% inhibition of induced edema in the rat mycobacterium foot-pad edema test

Cc1ccc(Cl)c(Nc2ccccc2C(=O)[O-])c1Cl.O.[Na+] [MECLOFENAMATE SODIUM]
inhibition in vivo at 10 mg/kg (Rattus norvegicus [1]): 34% | inhibition in vivo at 30 mg/kg (Rattus norvegicus [2]): 41% | ID40 (Rattus norvegicus [3]): 0.4 mg/kg
